± gives the expanded uncertainty stated by the source.

A short description of this series: cn = amount concentration of the nth substance listed, in mol/dm3. The settings on record: 308 K, Liquid; for mass density: 101 kPa; for viscosity: 101.3 kPa.

In general, mass density refers to the mass of a sample divided by its volume. A word on the viscosity: it is the internal friction of a fluid under shear. Take `[Cl][Ni][Cl]` [nickel chloride (NiCl2)] + O: for the setting “c1 = 0.06”, the mass density is 994.09 ± 0.7 kg/m3 and the viscosity is listed as 0.7261 ± 0.019 mPa·s. For the setting “c1 = 0.1”, the mass density came out at 1004 ± 0.7 kg/m3 and the viscosity is 0.7469 ± 0.019 mPa·s.

In the case of `O=[N+]([O-])[O-].O=[N+]([O-])[O-].[Cu+2]` [copper dinitrate] + O, under “c1 = 0.06”, the mass density is recorded as 1002.3 ± 0.8 kg/m3 and the viscosity was determined as 0.7347 ± 0.019 mPa·s. Under “c1 = 0.1”, the mass density is listed as 1008.6 ± 0.8 kg/m3 and the viscosity is reported as 0.7487 ± 0.02 mPa·s.

The values above are taken from the NIST ThermoML archive (doi:10.1016/j.fluid.2007.01.043).
